Measurements as given in patent publication US20080234130A1, “Compositions providing tolerance to multiple herbicides and methods of use thereof” (priority 2005, published 2008).

Assays:
[1] = system: parent elite stiff stalk inbred corn; assay: Preemergence effect of ALS herbicides (fresh weight, visual injury); details: 200 g/ha, mean of four replications; for % Visual Injury Patent elite stiff stalk inbred: 4 weeks after treatment, 0% no injury, 100% plant death; for Fresh Weight (g) patent elite stiff stalk inbred: fresh shoots 4 weeks after treatment, untreated 36.7 g
[2] = system: parent elite stiff stalk inbred corn; assay: Postemergence effect of ALS herbicides, glyphosate and glufosinate (fresh weight, visual injury); details: 200 g/ha (glyphosate 3472 g ae/ha, glufosinate ammonium 1870 g/ha), mean of four replications; for % Visual Injury Parent elite stiff stalk inbred: 2 weeks after treatment, 0% no injury, 100% plant death; for Fresh Weight (g) Parent elite stiff stalk inbred: applied two weeks after planting, fresh shoots 2 weeks after treatment, untreated 76.4 g
GAT-HRA maize = assay: Postemergence herbicide spray at V2, injury evaluated 10-14 days after application
Procedure: GAT-HRA maize plants were evaluated for tolerance to glyphosate and other herbicides. One protocol used in this evaluation was as follows. At the V2 stage (Ritchie and Hanway (1982), “How a corn plant develops” Spec. Rep. 48. (Coop. Ext. Ser., Iowa State Univ., Ames, Iowa)), plant heights were measured and herbicides were applied by spray application. Ten to fourteen days after the spray application, the transgenic plants were evaluated for injury symptoms and measured for plant height again in order to determine plant growth rates.
Plants were then evaluated at various times after treatment, such as 10 or 14 days after treatment. […] Leaf samples were taken from GAT-HRA plants and used in quantitative PCR analysis and other analyses to determine the number and arrangement of copies of the GAT and HRA polynucleotides that had been integrated into the plant genome.
Other protocols for evaluation included treatment with imidazolinone herbicides, such as the commercial herbicide Lightning® (a combination of imazapyr and imazethapyr), which was applied to GAT-HRA maize at the V2 leaf stage at four times the field label rate (250 g ai/ha). […] Another protocol for evaluation included treatment with imidazolinone herbicides as well as sulfonylurea and glyphosate herbicides. In these tests, GAT-HRA maize was treated with various combinations of Lightning® (imazapyr and imazethapyr), Basis® (rimsulfuron and thifensulfuron-methyl) and WeatherMAX® (glyphosate potassium salt). These herbicides were applied at the V2 stage as follows: Lightning® at twice the field label rate (1.8 oz ai/ac (133 ml ai/ha)), Basis® at twice the field label rate (0.5 oz ai/ac (36.9 ml ai/ha)) and WeatherMax® at four times the field label rate (43 oz ai/ac). Fourteen days after the treatment application, the plants were evaluated. […] “Field label rate” refers to the application rate specified on the product label. Where the application rate for a particular situation is a range of rates, as used herein, the term “field label rate” indicates the upper end of that range. […]

[3] = system: heterozygous GAT-HRA corn; assay: Preemergence effect of ALS herbicides (fresh weight, visual injury); details: 200 g/ha, mean of four replications; for % Visual Injury Heterozygous GAT-HRA: 4 weeks after treatment, 0% no injury, 100% plant death; for Fresh Weight (g) Heterozygous GAT-HRA: fresh shoots 4 weeks after treatment, untreated 47.0 g
[4] = system: heterozygous GAT-HRA corn; assay: Postemergence effect of ALS herbicides, glyphosate and glufosinate (fresh weight, visual injury); details: 200 g/ha (glyphosate 3472 g ae/ha, glufosinate ammonium 1870 g/ha), mean of four replications; for % Visual Injury Heterozygous GAT-HRA: 2 weeks after treatment, 0% no injury, 100% plant death; for Fresh Weight (g) Heterozygous GAT-HRA: applied two weeks after planting, fresh shoots 2 weeks after treatment, untreated 98.8 g
control maize = assay: Postemergence herbicide spray at V2, injury evaluated 10-14 days after application; assay type: in vivo; details: tribenuron, chlorimuron, imazapyr 200 g ai/ha, metsulfuron-methyl 0.5 oz ai/ac or 35 g ai/ha, 10-14 days after spray
[5] = system: non-glyphosate resistant ryegrass (70-04); assay: Control of ryegrass by glyphosate, metsulfuron-methyl and two additives (Table 23); assay type: in vivo
Procedure: The example was conducted on non-glyphosate resistant ryegrass. As provided in Table 23, all treatments that included glyphosate [180 g a.i. L ha^−1 (0.5 L glyphosate (SCAT®))] plus metsulfuron-methyl (BRUSH-OFF®) (5 and 10 g ha^−1) gave 100% control of the ryegrass.
• Biotype: non-glyphosate resistant ryegrass (70-04) • Population profile: Rup 0.25 control (%) 6.25 • Rup 0.5 control (%) 81.25 • Rup 1.0 control (%) 93.75 • Growth Stage: 5-6 leaf stage • Conditions: hot and sunny • Volume rate: 200 L ha^−1

[6] = system: non-glyphosate resistant Conyza (Welgevallen-paraquat resistant); assay: Control of hairy fleabane by glyphosate, metsulfuron-methyl and two additives (Table 24); assay type: in vivo, Conyza bonariensis
Procedure: This example included the same treatments as used in Example 11, except the treatments were carried out on a glyphosate sensitive biotype of Kleinskraalhans (Conyza bonariensis).
• Biotype: Non-glyphosate resistant Conyza (Welgevallen-paraquat resistant) • Growth Stage: 10-15 leaf stage • Conditions: Cool and sunny • Volume rate: 200 L ha^−1 • glyphosate (ROUNDUP): 360 g a.i. L^−1

[7] = system: non-transgenic control soybeans; assay: Postemergence greenhouse spray of soybeans, visual injury (Table 11); details: tribenuron-methyl 35 g/ha
Procedure: Young regenerated transgenic plants were sprayed with 1× glyphosate (1× rate of glyphosate is 1120 g/ha of glyphosate isopropylamine) to cull segregants. Four replications were performed for each treatment. Plants were then treated with various herbicides, including glyphosate and ALS-inhibitor herbicides.
Six soybean seeds from each variety to be assayed were planted 1 cm deep in 5.5 (13.97 cm) inch square plastic container of a synthetic growth medium. […] When possible, containers were thinned to two uniform plants. Non-transgenic lines were thinned to two uniform plants per container.
Results are expressed below in Table 11 as the mean of four replications.

[8] = Trial 2: metsulfuron-methyl (BRUSH-OFF) 5 g/ha
[9] = Trial 3: metsulfuron-methyl (BRUSH-OFF) 10 g/ha

| Molecule | % Visual Injury Patent elite stiff stalk inbred [1] | Fresh Weight (g) patent elite stiff stalk inbred [1] | % Visual Injury Parent elite stiff stalk inbred [2] | Fresh Weight (g) Parent elite stiff stalk inbred [2] | damage from the treatment, GAT-HRA maize (GAT-HRA maize; postemergence spray at V2, tribenuron (Express), chlorimuron (Classic), imazapyr (Arsenal) 200 g ai/ha, metsulfuron-methyl (Ally) 0.5 oz ai/ac or 35 g ai/ha, 10-14 days after spray) | % Visual Injury Heterozygous GAT-HRA [3] | Fresh Weight (g) Heterozygous GAT-HRA [3] | % Visual Injury Heterozygous GAT-HRA [4] | Fresh Weight (g) Heterozygous GAT-HRA [4] | damage from the treatment, control maize (control maize) | damage from the treatment, GAT-HRA maize (GAT-HRA maize; in vivo) | Control (%) [5, 8] | Control (%) [5, 9] | Control (%) [6, 8] | Control (%) [6, 9] | effect on non-transgenic control soybeans [7] |
| --- | --- | --- | --- | --- | --- | --- | --- | --- | --- | --- | --- | --- | --- | --- | --- | --- |
| CCOC(=O)c1ccccc1S(=O)(=O)NC(=O)Nc1nc(Cl)cc(OC)n1 [Chlorimuron-ethyl, ethyl 2-[[[[(4-chloro-6-methoxy-2-pyrimidinyl)amino]carbonyl]amino]sulfonyl]-benzoate] | 100% | 9.3 g | 93% | 10.1 g | no significant damage | 10% | 39.4 g | 15% | 95.5 g | severely damaged or killed | – | – | – | – | – | – |
| CC(C)C1(C)N=C(c2ncccc2C(=O)O)NC1=O (stereo not drawn) [Imazapyr] | 99% | – | 100% | – | – | 30% | – | 1% | – | severely damaged or killed | no significant damage | – | – | – | – | – |
| COC(=O)c1ccccc1S(=O)(=O)NC(=O)Nc1nc(C)nc(OC)n1 [Metsulfuron-methyl (BRUSH-OFF ®)] | – | – | – | – | – | – | – | – | – | – | – | 0% | 0% | 100% | 100% | – |
| COC(=O)c1ccccc1S(=O)(=O)NC(=O)Nc1nc(C)nc(OC)n1 [Metsulfuron-methyl, methyl 2-[[[[(4-methoxy-6-methyl-1,3,5-triazin-2-yl)amino]carbonyl]amino]sulfonyl]benzoate] | 100% | – | 100% | – | – | 0% | – | 14% | – | severely damaged or killed | no significant damage | – | – | – | – | – |
| CCS(=O)(=O)c1nc2ccccn2c1S(=O)(=O)NC(=O)Nc1nc(OC)cc(OC)n1 [Sulfosulfuron, N-[[(4,6-dimethoxy-2-pyrimidinyl)amino]carbonyl]-2-(ethylsulfonyl)imidazo[1,2-a]pyridine-3-sulfonamide] | 100% | – | 97% | – | – | 18% | – | 3% | – | – | – | – | – | – | – | – |
| COC(=O)c1sccc1S(=O)(=O)NC(=O)Nc1nc(C)nc(OC)n1 [Thifensulfuron-methyl, methyl 3-[[[[(4-methoxy-6-methyl-1,3,5-triazin-2-yl)amino]carbonyl]amino]sulfonyl]-2-thiophenecarboxylate] | 88% | – | 98% | – | – | 3% | – | 10% | – | – | – | – | – | – | – | – |
| COC(=O)c1ccccc1S(=O)(=O)NC(=O)N(C)c1nc(C)nc(OC)n1 [Tribenuron-methyl, methyl 2-[[[[N-(4-methoxy-6-methyl-1,3,5-triazin-2-yl)-N-methylamino]carbonyl]-amino]sulfonyl]benzoate] | 66% | – | 100% | – | – | 25% | – | 8% | – | – | – | – | – | – | – | killed by the treatment |
| COc1cc(OC)nc(NC(=O)NS(=O)(=O)c2ncccc2OCC(F)(F)F)n1 [Trifloxysulfuron Na^+, N-[[(4,6-dimethoxy-2-pyrimidinyl)amino]-carbonyl]-3-(2,2,2-trifluoroethoxy)-2-pyridinesulfonamide] | 100% | 0.0 g | 100% | 1.0 g | – | 0% | 50.8 g | 29% | 86.6 g | – | – | – | – | – | – | – |
| COC(=O)c1cccc(C)c1S(=O)(=O)NC(=O)Nc1nc(OCC(F)(F)F)nc(N(C)C)n1 [Triflusulfuron-methyl] | 100% | 26.3 g | 100% | 2.1 g | – | 5% | 53.5 g | 8% | 110.9 g | – | – | – | – | – | – | – |
| Imazamethabenz-methyl | 61% | 36.2 g | 11% | 66.9 g | – | 15% | 48.5 g | 16% | 95.0 g | – | – | – | – | – | – | – |
